Key:
[1] = target: T1, Type-2 angiotensin II receptor (Homo sapiens, UniProt P50052); test: biochemical; format: cell-based, CHO-K1; settings: cho-k1; also: in other assays of this panel Not Active means under 50% inhibition at 10 µM
T1 sequence (P50052 whole entry): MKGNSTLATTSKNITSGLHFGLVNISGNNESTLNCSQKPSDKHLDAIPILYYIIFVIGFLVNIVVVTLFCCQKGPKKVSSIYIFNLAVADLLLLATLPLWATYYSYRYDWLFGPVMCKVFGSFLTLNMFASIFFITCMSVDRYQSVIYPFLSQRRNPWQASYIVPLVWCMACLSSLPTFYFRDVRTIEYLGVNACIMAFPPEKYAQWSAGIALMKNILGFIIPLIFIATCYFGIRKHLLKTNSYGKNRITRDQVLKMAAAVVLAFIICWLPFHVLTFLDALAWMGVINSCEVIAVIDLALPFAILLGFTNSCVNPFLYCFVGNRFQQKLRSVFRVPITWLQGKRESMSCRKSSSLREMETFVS

[2] = target: Mitogen-activated protein kinase 1 (Homo sapiens, UniProt P28482); test: DRUGMATRIX: Protein Serine/Threonine Kinase, ERK2 enzyme inhibition (substrate: Myelin Basic Protein); parameters: species or system Escherichia coli; settings: Not Active = under 50% inhibition at 10 µM
Mitogen-activated protein kinase 1, sequence (P28482 whole entry): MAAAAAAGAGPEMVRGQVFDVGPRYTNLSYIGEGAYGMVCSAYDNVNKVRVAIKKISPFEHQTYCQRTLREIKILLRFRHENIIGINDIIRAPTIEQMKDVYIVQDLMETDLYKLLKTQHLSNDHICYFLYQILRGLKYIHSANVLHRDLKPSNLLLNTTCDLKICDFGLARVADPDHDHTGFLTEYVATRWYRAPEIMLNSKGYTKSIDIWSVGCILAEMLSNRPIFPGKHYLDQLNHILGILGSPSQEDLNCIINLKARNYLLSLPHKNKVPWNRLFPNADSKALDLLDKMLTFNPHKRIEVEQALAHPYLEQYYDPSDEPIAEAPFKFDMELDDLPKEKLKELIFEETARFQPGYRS

[3] = DRUGMATRIX: Sodium/nucleoside co-transporter radioligand binding (ligand: nitrobenzylthioinosine); format: cell membranes, Cavia porcellus, Dunkin-Hartley, Cerebral cortex, Membrane; settings: Not Active = under 50% inhibition at 10 µM
[4] = target: T2, Angiotensin-converting enzyme (Oryctolagus cuniculus, UniProt P12822); format: tissue-based, Lung;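 also: enzymatic inhibition of angiotensin-converting enzyme measured with FAPGG as the substrate; in other assays of this panel Not Active means under 50% inhibition at 10 µM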
T2 sequence (P12822 whole entry): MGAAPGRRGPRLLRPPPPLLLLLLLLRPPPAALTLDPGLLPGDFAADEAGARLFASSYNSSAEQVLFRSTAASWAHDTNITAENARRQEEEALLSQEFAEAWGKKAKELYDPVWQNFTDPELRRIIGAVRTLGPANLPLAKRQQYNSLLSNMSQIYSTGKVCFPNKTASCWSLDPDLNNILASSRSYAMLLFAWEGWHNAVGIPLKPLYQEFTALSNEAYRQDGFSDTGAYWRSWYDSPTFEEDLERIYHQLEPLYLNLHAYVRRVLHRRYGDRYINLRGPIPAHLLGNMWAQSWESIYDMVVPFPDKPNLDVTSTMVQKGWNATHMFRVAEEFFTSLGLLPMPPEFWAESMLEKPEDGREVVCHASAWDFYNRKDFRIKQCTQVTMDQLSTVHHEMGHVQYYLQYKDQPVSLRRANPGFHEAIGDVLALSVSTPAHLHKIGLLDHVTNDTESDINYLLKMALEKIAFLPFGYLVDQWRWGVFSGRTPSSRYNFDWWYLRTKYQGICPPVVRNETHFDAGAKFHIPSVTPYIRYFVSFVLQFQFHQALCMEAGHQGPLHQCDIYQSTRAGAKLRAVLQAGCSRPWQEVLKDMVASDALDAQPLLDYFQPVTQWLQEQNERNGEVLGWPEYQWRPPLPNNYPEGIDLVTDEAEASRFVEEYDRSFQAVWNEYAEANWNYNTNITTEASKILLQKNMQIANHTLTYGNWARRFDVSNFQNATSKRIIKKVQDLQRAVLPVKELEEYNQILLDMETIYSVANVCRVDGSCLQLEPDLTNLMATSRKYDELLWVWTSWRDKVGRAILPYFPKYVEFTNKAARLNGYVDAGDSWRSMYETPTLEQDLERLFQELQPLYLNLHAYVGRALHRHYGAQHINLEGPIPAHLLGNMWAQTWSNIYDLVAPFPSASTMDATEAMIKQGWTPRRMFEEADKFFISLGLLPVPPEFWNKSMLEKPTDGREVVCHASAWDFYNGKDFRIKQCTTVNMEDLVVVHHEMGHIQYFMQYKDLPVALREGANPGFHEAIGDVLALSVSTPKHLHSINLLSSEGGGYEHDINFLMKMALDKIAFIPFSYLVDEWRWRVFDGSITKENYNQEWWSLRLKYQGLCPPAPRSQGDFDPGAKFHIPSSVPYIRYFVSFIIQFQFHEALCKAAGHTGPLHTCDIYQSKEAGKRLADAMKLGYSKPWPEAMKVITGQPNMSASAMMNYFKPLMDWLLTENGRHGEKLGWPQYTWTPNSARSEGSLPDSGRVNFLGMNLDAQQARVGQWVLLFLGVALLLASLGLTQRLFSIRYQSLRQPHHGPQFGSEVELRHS

[5] = target: Mitogen-activated protein kinase 3 (Homo sapiens, UniProt P27361); test: DRUGMATRIX: Protein Serine/Threonine Kinase, ERK1 enzyme inhibition (substrate: Myelin Basic Protein); parameters: species or system Escherichia coli; settings: Not Active = under 50% inhibition at 10 µM
Mitogen-activated protein kinase 3, sequence (P27361 whole entry): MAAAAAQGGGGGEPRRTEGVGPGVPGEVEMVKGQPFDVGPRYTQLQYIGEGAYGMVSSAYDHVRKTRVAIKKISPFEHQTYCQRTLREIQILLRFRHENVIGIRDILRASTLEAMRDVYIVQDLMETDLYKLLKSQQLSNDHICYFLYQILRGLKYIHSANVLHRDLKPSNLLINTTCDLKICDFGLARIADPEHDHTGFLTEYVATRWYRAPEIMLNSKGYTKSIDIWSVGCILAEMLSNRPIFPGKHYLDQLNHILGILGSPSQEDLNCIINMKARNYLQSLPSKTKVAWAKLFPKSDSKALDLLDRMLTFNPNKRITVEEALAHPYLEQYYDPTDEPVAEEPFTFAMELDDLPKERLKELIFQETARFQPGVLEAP

[6] = DRUGMATRIX: Leukotriene, BLT (LTB4) radioligand binding (ligand: [3H]LTB4); format: cell membranes, Membrane; settings: u-937; Not Active = under 50% inhibition at 10 µM
[7] = DRUGMATRIX: ATPase, Na+/K+ enzyme inhibition (substrate: ATP); format: tissue-based, Sus scrofa, Heart; settings: Not Active = under 50% inhibition at 10 µM

CC(C)c1c(C(=O)Nc2ccccc2)c(-c2ccccc2)c(-c2ccc(F)cc2)n1CC[C@@H](O)C[C@@H](O)CC(=O)O [ATORVASTATIN]
Not Active: IC50 [1] | IC50 [2] | IC50 [3] | Ki [3] | IC50 [4] | IC50 [5] | IC50 [6] | Ki [6] | IC50 [7] | Ki [7]

CC(=O)OC[C@H]1O[C@@H](n2ncc(=O)[nH]c2=O)[C@H](OC(C)=O)[C@@H]1OC(C)=O [AZARIBINE]
Not Active: IC50 [1] | IC50 [2] | IC50 [3] | Ki [3] | IC50 [4] | IC50 [5] | IC50 [6] | Ki [6] | IC50 [7] | Ki [7]

C[C@H]1[C@H](NC(=O)/C(=N\OC(C)(C)C(=O)O)c2csc(N)n2)C(=O)N1S(=O)(=O)O [AZTREONAM]
Not Active: IC50 [1] | IC50 [2] | IC50 [3] | Ki [3] | IC50 [4] | IC50 [5] | IC50 [6] | Ki [6] | IC50 [7] | Ki [7]

O=C(O)CCNC(=O)c1ccc(/N=N/c2ccc(O)c(C(=O)O)c2)cc1 [BALSALAZIDE]
Not Active: IC50 [1] | IC50 [2] | IC50 [3] | Ki [3] | IC50 [4] | IC50 [5] | IC50 [6] | Ki [6] | IC50 [7] | Ki [7]

COc1cc(OC)c(C(=O)CCCN2CCCC2)c(OC)c1 [BUFLOMEDIL]
Not Active: IC50 [1] | IC50 [2] | IC50 [3] | Ki [3] | IC50 [4] | IC50 [5] | IC50 [6] | Ki [6] | IC50 [7] | Ki [7]

Cn1c(=O)c2c(ncn2C)n(C)c1=O [CAFFEINE]
Not Active: IC50 [1] | IC50 [2] | IC50 [3] | Ki [3] | IC50 [4] | IC50 [5] | IC50 [6] | Ki [6] | IC50 [7] | Ki [7]

ClC(Cl)(Cl)Cl [CARBON TETRACHLORIDE]
Not Active: IC50 [1] | IC50 [2] | IC50 [3] | Ki [3] | IC50 [4] | IC50 [5] | IC50 [6] | Ki [6] | IC50 [7] | Ki [7]

CNC1=Nc2ccc(Cl)cc2C(c2ccccc2)=[N+]([O-])C1 [CHLORDIAZEPOXIDE]
Not Active: IC50 [1] | IC50 [2] | IC50 [3] | Ki [3] | IC50 [4] | IC50 [5] | IC50 [6] | Ki [6] | IC50 [7] | Ki [7]

Cc1cc(O)cc(C)c1Cl [CHLOROXYLENOL]
Not Active: IC50 [1] | IC50 [2] | IC50 [3] | Ki [3] | IC50 [4] | IC50 [5] | IC50 [6] | Ki [6] | IC50 [7] | Ki [7]

CCCNC(=O)NS(=O)(=O)c1ccc(Cl)cc1 [CHLORPROPAMIDE]
Not Active: IC50 [1] | IC50 [2] | IC50 [3] | Ki [3] | IC50 [4] | IC50 [5] | IC50 [6] | Ki [6] | IC50 [7] | Ki [7]

NS(=O)(=O)c1cc(C2(O)NC(=O)c3ccccc32)ccc1Cl (stereo not given) [CHLORTHALIDONE]
Not Active: IC50 [1] | IC50 [2] | IC50 [3] | Ki [3] | IC50 [4] | IC50 [5] | IC50 [6] | Ki [6] | IC50 [7] | Ki [7]

O=C(O)CC(O)(CC(=O)O)C(=O)O [CITRIC ACID]
Not Active: IC50 [1] | IC50 [2] | IC50 [3] | Ki [3] | IC50 [4] | IC50 [5] | IC50 [6] | Ki [6] | IC50 [7] | Ki [7]

CC(C)NCC(O)c1ccccc1Cl (stereo not given) [CLORPRENALINE]
Not Active: IC50 [1] | IC50 [2] | IC50 [3] | Ki [3] | IC50 [4] | IC50 [5] | IC50 [6] | Ki [6] | IC50 [7] | Ki [7]

CN1CCN(C(c2ccccc2)c2ccccc2)CC1 [CYCLIZINE]
Not Active: IC50 [1] | IC50 [2] | IC50 [3] | Ki [3] | IC50 [4] | IC50 [5] | IC50 [6] | Ki [6] | IC50 [7] | Ki [7]

CN1C[C@@H]2C[C@H]1CN2c1cc2c(cc1F)c(=O)c(C(=O)O)cn2C1CC1 [DANOFLOXACIN]
Not Active: IC50 [1] | IC50 [2] | IC50 [3] | Ki [3] | IC50 [4] | IC50 [5] | IC50 [6] | Ki [6] | IC50 [7] | Ki [7]
